Experimental data as given in ChEMBL document CHEMBL5365466, “Discovery of Triazolyl Derivatives of Cucurbitacin B Targeting IGF2BP1 against Non-Small Cell Lung Cancer” (J Med Chem, 2023).
Activity calls are given as the source filed them. The rule behind the calls is not given here.

Assays:
A549 [1] = assay: Induction of apoptosis in human A549 cells assessed as downregulation of BCL-xl expression incubated for 48 hrs by Western blotting analysis; format: functional, cell-based
HCT-116 [2] = assay: Antiproliferative activity against human HCT-116 cells assessed as cell growth inhibition at 1 uM incubated for 72 hrs by SRB assay; format: functional
[3] = Antiproliferative activity against human L02 cells assessed as cell growth inhibition at 1 uM incubated for 72 hrs by SRB assay; format: toxicity, cell-based
[4] = Antiproliferative activity against human L02 cells assessed as cell growth inhibition at 0.1 uM incubated for 72 hrs by SRB assay; format: toxicity, cell-based
HCT-116 [5] = assay: Antiproliferative activity against human HCT-116 cells assessed as cell growth inhibition incubated for 72 hrs by SRB assay; format: functional, cell-based; conditions: HCT-116, 72 h
[6] = Antiproliferative activity against human L02 cells assessed as cell growth inhibition incubated for 72 hrs by SRB assay; format: toxicity, cell-based
A549 [7] = assay: Antiproliferative activity against human A549 cells assessed as cell growth inhibition incubated for 72 hrs by SRB assay; format: functional, cell-based; conditions: A549, 72 h
SK-OV-3 = assay: Antiproliferative activity against human SK-OV-3 cells assessed as cell growth inhibition incubated for 72 hrs by SRB assay; format: functional, cell-based; conditions: SK-OV-3, 72 h
HeLa = assay: Antiproliferative activity against human HeLa cells assessed as cell growth inhibition incubated for 72 hrs by SRB assay; format: functional, cell-based
HepG2 = assay: Antiproliferative activity against human HepG2 cells assessed as cell growth inhibition incubated for 72 hrs by SRB assay; format: functional, cell-based; conditions: HepG2, 72 h
BXPC-3 = assay: Antiproliferative activity against human BXPC-3 cells assessed as cell growth inhibition incubated for 72 hrs by SRB assay; format: functional, cell-based; conditions: BXPC-3, 72 h
[8] = Selectivity index, ratio of IC50 for antiproliferative activity against human L02 cells to IC50 for antiproliferative activity against human BXPC-3 cells; format: toxicity, cell-based; conditions: L02 cells versus BXPC-3 cells, read-out: Ratio IC50
[9] = Selectivity index, ratio of IC50 for antiproliferative activity against human L02 cells to IC50 for antiproliferative activity against human PANC-1 cells
A549 [10] = assay: Induction of apoptosis in human A549 cells incubated for 48 hrs by Annexin V-FITC/PI staining based flow cytometric analysis; format: functional, cell-based
A549 [11] = assay: Induction of cell cycle arrest in human A549 cells assessed as accumulation of cells at G1 phase at 0.2 uM incubated for 24 hrs by PI staining based flow cytometric analysis (reference value: 65.6 %); format: functional
A549 [12] = assay: Induction of cell cycle arrest in human A549 cells assessed as accumulation of cells at S phase at 0.2 uM incubated for 24 hrs by PI staining based flow cytometric analysis (reference value: 23 %); format: functional
A549 [13] = assay: Induction of cell cycle arrest in human A549 cells assessed as accumulation of cells at G1 phase at 0.5 uM incubated for 24 hrs by PI staining based flow cytometric analysis (reference value: 65.6 %); format: functional
A549 [14] = assay: Induction of cell cycle arrest in human A549 cells assessed as accumulation of cells at S phase at 0.5 uM incubated for 24 hrs by PI staining based flow cytometric analysis (reference value: 23 %); format: functional
[15] = biological target: T1, Insulin-like growth factor 2 mRNA-binding protein 1 (Homo sapiens, UniProt Q9NZI8); assay: Binding affinity to human recombinant IGF2BP1 assessed as dissociation constant by microscale thermophoresis analysis
[16] = biological target: T1, Insulin-like growth factor 2 mRNA-binding protein 1; assay: Binding affinity to IGF2BP1 in human A549 cells assessed as protein stabilization at 1 uM at 52 degreeC incubated for 2 hrs by CETSA; format: cell-based
[17] = biological target: T1, Insulin-like growth factor 2 mRNA-binding protein 1; assay: Binding affinity to IGF2BP1 in human A549 cells assessed as protein stabilization at 1 uM at 55 degreeC incubated for 2 hrs by CETSA; format: cell-based
A549 [18] = assay: Induction of apoptosis in human A549 cells assessed as downregulation of c-Myc expression incubated for 48 hrs by Western blotting analysis; format: functional, cell-based
A549 [19] = assay: Antiproliferative activity against human A549 cells with IGF2BP1 knockdown assessed as cell growth inhibition incubated for 72 hrs by SRB assay; format: functional, cell-based; conditions: A549, 72 h
A549 [20] = assay: Antitumor activity against human A549 cells xenografted in BALB/c mouse assessed as tumor growth inhibition at 0.5 mg/kg,ip administrated for 21 days; format: functional; conditions: A549, 504 h, time 21 day, read-out: TGI
A549 [21] = assay: Antitumor activity against human A549 cells xenografted in BALB/c mouse assessed as vacuole formation at 0.5 mg/kg,ip administrated for 21 days by hematoxylin and eosin staining based microscopic analysis; format: functional, organism-based; conditions: time 21.0 day
A549 [22] = assay: Antitumor activity against human A549 cells xenografted in BALB/c mouse assessed as increase in apoptosis at 0.5 mg/kg,ip administrated for 21 days by TUNEL staining based analysis; format: functional, organism-based; conditions: time 21.0 day

T1 sequence (Q9NZI8 whole entry): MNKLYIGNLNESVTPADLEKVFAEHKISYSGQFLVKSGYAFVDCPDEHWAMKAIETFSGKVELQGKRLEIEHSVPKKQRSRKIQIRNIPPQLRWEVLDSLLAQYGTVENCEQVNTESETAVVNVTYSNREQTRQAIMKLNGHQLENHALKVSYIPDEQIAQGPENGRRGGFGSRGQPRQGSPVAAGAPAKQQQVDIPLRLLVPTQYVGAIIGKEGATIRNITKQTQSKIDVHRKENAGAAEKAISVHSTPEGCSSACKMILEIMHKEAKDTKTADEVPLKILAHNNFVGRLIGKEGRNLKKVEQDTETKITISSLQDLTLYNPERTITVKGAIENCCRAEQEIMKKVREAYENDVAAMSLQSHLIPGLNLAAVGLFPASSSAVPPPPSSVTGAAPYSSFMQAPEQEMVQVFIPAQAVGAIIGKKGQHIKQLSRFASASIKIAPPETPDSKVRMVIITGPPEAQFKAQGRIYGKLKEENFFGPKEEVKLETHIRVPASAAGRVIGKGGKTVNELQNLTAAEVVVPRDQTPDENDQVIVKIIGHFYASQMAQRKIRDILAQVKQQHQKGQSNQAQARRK

For `CC(=O)OC(C)(C)/C=C/C(=O)[C@](C)(O)[C@H]1[C@H](O)C[C@@]2(C)[C@@H]3CC=C4[C@@H](C[C@H](OC(=O)Cn5ncn(-c6ccc(F)cc6)c5=O)C(=O)C4(C)C)[C@]3(C)C(=O)C[C@]12C`, the Activity (A549 [1]) was “Dose-Dependent Effect”, the inhibition at 1 µM (HCT-116 [2]) was 84.1% and the inhibition at 72 h, 1 µM [3] was 68.9%. For the same compound, the inhibition at 72 h, 0.1 µM [4] was 50.5%, the IC50 (HCT-116 [5]) was 34 nM and the IC50 at 72 h [6] was 100 nM. For the same compound, the IC50 (A549 [7]) was 9 nM, the IC50 (SK-OV-3) was 54 nM and the IC50 (HeLa) was 15 nM. It also gave an IC50 (HepG2) of 80 nM, an IC50 (BXPC-3) of 18 nM and a selectivity ratio [8] of 5.56. The “Ratio IC50” value [9] was 1.14, the Activity (A549 [10]) was “Dose-Dependent Effect” and the Activity (A549 [11]) was 63.6%. For the same compound, the Activity (A549 [12]) was 16.6%, the Activity (A549 [13]) was 51.3% and the Activity (A549 [14]) was 8.96%. The Kd [15] was 10.9 nM, the Activity [16] was “Active” and the Activity [17] was “Active”. The Activity (A549 [18]) was “Dose-Dependent Effect”, the IC50 (A549 [19]) was 92 nM and the inhibition in vivo at 0.5 mg/kg (A549 [20]) was 80%. For the same compound, the Activity (A549 [21]) was “Active” and the Activity (A549 [22]) was “Active”.
